Columns and labels:
[1] = test system: HIV-1 (NL4-3 strain); assay: Viral Kinetics GFP Reporter (ViKinG) assay; type: cell-based; conditions: Human immunodeficiency virus 1, NL43; 50% NHS; MT4-GFP cells infected with HIV-1 NL4-3; mean of at least two independent experiments
Source text: Viral Kinetics GFP Reporter (ViKinG) Assay
The ViKinG assay is an in vitro kinetic assay that employs the MT4-gag-GFP reporter cell line (Wang et al., “Assessment of the susceptibility of mutant HIV-1 to antiviral agents.” J Virological Methods 165:230-37 (2010)) to quantify the number of new cells infected in each round of replication. The purpose of the ViKinG assay is to identify agents that inhibit HIV progression. Briefly, HIV infection results in tat transactivation of the stably expressed HIV LTR promoter to drive gagGFP expression. Thus, an increase in the number of GFP-MT4 cells results following HIV infection.
MT4-GFP cells (250,000 cells/ml) were bulk-infected with HIV-1 (NL4-3 strain) at low multiplicity of infection (MOI) in RPMI+10% FBS for 24 hours. Cells were then washed once in RPMI+10% FBS and resuspended RPMI+10% or 50% normal human serum (NHS). Test compounds were serial-diluted in DMSO on an ECHO® liquid handling platform (Labcyte Corp., Sunnyvale, Calif.), along with a triple drug control (integrase, protease and NNRTI compounds). The infected MT4-GFP cells were added to a 384-well poly-D-lysine coated black plate with clear bottom in which the diluted test compounds were placed. The cells were seeded at 8,000 cells per well and the final DMSO concentration was 0.4%. The infected cells (Green GFP cells) were quantified at both 24 and 48 hours post incubation using Acumen® eX3 (TTP Labtech Ltd., Hertfordshire, United Kingdom). Viral reproductive ratio (R0) was determined using the number of infected cells at 48 hours divided by the number of infected cells at 24 hours. Percent viral growth inhibition was calculated by [1−(R−Rtripledrug)/(RDMSO−Rtripledrug)]*100. Compound potency IP or IC50 was determined by a 4-parameter dose response curve analysis.

[2] = target: T1, wildtype HIV-1 protease (Human immunodeficiency virus type 1 group M subtype B, UniProt P04585); assay: Assay for inhibition of microbial expressed HIV protease (Pepcleav); type: biochemical; conditions: wild type HIV-1 protease 20 pM, peptide substrate 400 micromolar, pH 5.5; mean of at least two independent experiments
T1 construct: preincubated with the HIV-1 protease (wild type) enzyme in assay buffer; made in house; host or cells: Escherichia coli
Outline: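 E. coli-expressed enzyme preincubated with inhibitor 30 min at room temperature in 50 mM sodium acetate pH 5.5, 100 mM NaCl, 0.1% BSA, then 400 micromolar peptide substrate added with 20 picomolar protease (final), 1 h at 30° C. Product quantified by LC-MS/MS peak area after formic acid/indinavir quench.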

Structure (SMILES)	IC50 [1] [µM]	IC50 [2] [µM]
COC(=O)N[C@H](C(=O)Nc1cccc(F)c1CC[C@@H]1CNCC2(CCCC(=O)C2)O1)[C@@H](c1ccc(F)cc1)c1cc(F)cc(F)c1 (stereo partly drawn) [Example 92, Methyl ((1S,2S)-1-(3,5-difluorophenyl)-3-((3-fluoro-2-(2-((2R)-8-oxo-1-oxa-4-azaspiro[5.5]undecan-2-yl)ethyl)phenyl)amino)-1-(4-fluorophenyl)-3-oxopropan-2-yl)carbamate]	0.035	–
CC(=O)N1CCC2(CC1)CNC[C@@H](CCc1c(F)cccc1NC(=O)[C@@H](N)[C@@H](c1ccc(Cl)cc1)c1cc(F)cc(F)c1)O2 [Example 95, (2S,3S)—N-(2-(2-((R)-9-Acetyl-1-oxa-4,9-diazaspiro[5.5]undecan-2-yl)ethyl)-3-fluorophenyl)-2-amino-3-(4-chlorophenyl)-3-(3,5-difluorophenyl)propanamide]	0.15	–
N[C@H](C(=O)Nc1cccc(F)c1CC[C@@H]1CNCC2(CCOCC2)O1)[C@@H](c1ccc(Cl)cc1)c1cc(F)cc(F)c1 [Example 96, (βS)-4-chloro-β-(3,5-difluorophenyl)-N-(2-{2-[(2R)-1,9-dioxa-4-azaspiro[5.5]undec-2-yl]ethyl}-3-fluorophenyl)-L-phenylalaninamide]	0.08	–
COC(=O)N[C@H](C(=O)Nc1cccc(F)c1CC[C@@H]1CNCC2(CCOCC2)O1)[C@@H](c1ccc(Cl)cc1)c1cc(F)cc(F)c1 [Example 97, methyl {(1S,2S)-2-(4-chlorophenyl)-2-(3,5-difluorophenyl)-1-[(2-{2-[(2R)-1,9-dioxa-4-azaspiro[5.5]undec-2-yl]ethyl}-3-fluorophenyl)carbamoyl]ethyl}carbamate]	0.055	–
COC(=O)N[C@H](C(=O)Nc1cncc(F)c1CC[C@@H]1CNCC2(CCCC2)O1)C(c1ccc(F)cc1)c1ccc(F)cc1 [Example 100, methyl {(1S)-1-[bis(4-fluorophenyl)methyl]-2-[(5-fluoro-4-{2-[(7R)-6-oxa-9-azaspiro[4.5]dec-7-yl]ethyl}pyridin-3-yl)amino]-2-oxoethyl}carbamate]	0.071	–
N[C@H](C(=O)Nc1cncc(F)c1CC[C@@H]1CNCC2(CCOCC2)O1)C(c1ccc(F)cc1)c1ccc(F)cc1 [Example 101, N-(4-{2-[(2R)-1,9-dioxa-4-azaspiro[5.5]undec-2-yl]ethyl}-5-fluoropyridin-3-yl)-4-fluoro-β-(4-fluorophenyl)-L-phenylalaninamide]	0.11	–
NC(=O)OC[C@@H]1CNC[C@@H](CCc2c(F)cncc2NC(=O)[C@@H](N)C(c2ccc(F)cc2)c2ccc(F)cc2)O1 [Example 124, N-[4-(2-{(2R,6S)-6-[(carbamoyloxy)methyl]morpholin-2-yl}ethyl)-5-fluoropyridin-3-yl]-4-fluoro-β-(4-fluorophenyl)-L-phenylalaninamide]	–	0.12
N[C@H](C(=O)Nc1cncc(F)c1CC[C@@H]1CNC[C@@H](COC(=O)NCc2ccc(F)cc2)O1)C(c1ccc(F)cc1)c1ccc(F)cc1 [Example 125, 4-fluoro-N-(5-fluoro-4-{2-[(2R,6S)-6-({[(4-fluorobenzyl)carbamoyl]oxy}methyl)morpholin-2-yl]ethyl}pyridin-3-yl)-β-(4-fluorophenyl)-L-phenylalaninamide]	–	0.015
N[C@H](C(=O)Nc1cncc(F)c1CC[C@@H]1CNC[C@@H](COC(=O)NCCc2ccccc2)O1)C(c1ccc(F)cc1)c1ccc(F)cc1 [Example 130, 4-fluoro-β-(4-fluorophenyl)-N-(5-fluoro-4-{2-[(2R,6S)-6-({[(2-phenylethyl)carbamoyl]oxy}methyl)morpholin-2-yl]ethyl}pyridin-3-yl)-L-phenylalaninamide]	–	0.0088
N[C@H](C(=O)Nc1cncc(F)c1CC[C@@H]1CNCC2(CCCC2)O1)C(c1ccccc1)c1ccccc1 [Example 131, N-(5-fluoro-4-{2-[(7R)-6-oxa-9-azaspiro[4.5]dec-7-yl]ethyl}pyridin-3-yl)-β-phenyl-L-phenylalaninamide]	–	0.3
CC(C)COC[C@@H]1CNC[C@@H](CCc2c(F)cncc2NC(=O)[C@@H](N)C(c2ccc(F)cc2)c2ccc(F)cc2)O1 [Example 132, 4-fluoro-N-[5-fluoro-4-(2-{(2R,6S)-6-[(2-methylpropoxy)methyl]morpholin-2-yl}ethyl)pyridin-3-yl]-β-(4-fluorophenyl)-L-phenylalaninamide]	–	0.43
N[C@H](C(=O)Nc1cncc(F)c1CC[C@@H]1CNCC2(CCCCC2)O1)C(c1ccccc1)c1ccccc1 [Example 133, N-(5-fluoro-4-{2-[(2R)-1-oxa-4-azaspiro[5.5]undec-2-yl]ethyl}pyridin-3-yl)-β-phenyl-L-phenylalaninamide]	–	0.29
N[C@H](C(=O)Nc1cncc(F)c1CC[C@@H]1CNCC2(CCCC2)O1)C(c1ccc(F)cc1)c1ccc(F)cc1 [Example 150, 4-fluoro-N-(5-fluoro-4-{2-[(7R)-6-oxa-9-azaspiro[4.5]dec-7-yl]ethyl}pyridin-3-yl)-β-(4-fluorophenyl)-L-phenylalaninamide]	0.27	–
COC(=O)N[C@H](C(=O)Nc1cccc(F)c1CC[C@@H]1CNCC2(CCN(C(C)=O)CC2)O1)[C@@H](c1ccc(Cl)cc1)c1cc(F)cc(F)c1 [Example 151, methyl{(1S)-2-[(2-{2-[(2R)-9-acetyl-1-oxa-4,9-diazaspiro[5.5]undec-2-yl]ethyl}-3-fluorophenyl)amino]-1-[(S)-(4-chlorophenyl)(3,5-difluorophenyl)methyl]-2-oxoethyl}carbamate]	0.17	–
CC(=O)N1CCC2(CC1)CNC[C@@H](CCc1c(F)cncc1NC(=O)[C@@H](N)[C@@H](c1ccc(Cl)cc1)c1cc(F)cc(F)c1)O2 [Example 152, (βS)-N-(4-{2-[(2R)-9-acetyl-1-oxa-4,9-diazaspiro[5.5]undec-2-yl]ethyl}-5-fluoropyridin-3-yl)-4-chloro-β-(3,5-difluorophenyl)-L-phenylalaninamide]	0.32	–
COC(=O)N[C@H](C(=O)Nc1cncc(F)c1CC[C@@H]1CNCC2(CCN(C(C)=O)CC2)O1)[C@@H](c1ccc(Cl)cc1)c1cc(F)cc(F)c1 [Example 153, methyl{(1S)-2-[(4-{2-[(2R)-9-acetyl-1-oxa-4,9-diazaspiro[5.5]undec-2-yl]ethyl}-5-fluoropyridin-3-yl)amino]-1-[(S)-(4-chlorophenyl)(3,5-difluorophenyl)methyl]-2-oxoethyl}carbamate]	0.31	–
CS(=O)(=O)N1CCC2(CC1)CNC[C@@H](CCc1c(F)cncc1NC(=O)[C@@H](N)[C@@H](c1ccc(Cl)cc1)c1cccc(OC(F)(F)F)c1)O2 [Example 154, (βS)-β-(4-chlorophenyl)-N-(5-fluoro-4-{2-[(2R)-9-(methylsulfonyl)-1-oxa-4,9-diazaspiro[5.5]undec-2-yl]ethyl}pyridin-3-yl)-3-(trifluoromethoxy)-L-phenylalaninamide]	0.3	–
N[C@H](C(=O)Nc1cncc(F)c1CC[C@@H]1CNCC2(CCOCC2)O1)[C@@H](c1ccc(Cl)cc1)c1cc(F)cc(F)c1 [Example 155, (βS)-4-chloro-β-(3,5-difluorophenyl)-N-(4-{2-[(2R)-1,9-dioxa-4-azaspiro[5.5]undec-2-yl]ethyl}-5-fluoropyridin-3-yl)-L-phenylalaninamide]	0.14	–
N[C@H](C(=O)Nc1cncc(F)c1CC[C@@H]1CNCC2(CCOCC2)O1)[C@@H](c1ccc(Cl)cc1)c1cccc(OC(F)(F)F)c1 [Example 156, (βS)-4-chloro-N-(4-{2-[(2R)-1,9-dioxa-4-azaspiro[5.5]undec-2-yl]ethyl}-5-fluoropyridin-3-yl)-β-[3-(trifluoromethoxy)phenyl]-L-phenylalaninamide]	0.48	–
COC(=O)N[C@H](C(=O)Nc1cncc(F)c1CC[C@@H]1CNCC2(CCOCC2)O1)[C@@H](c1ccc(Cl)cc1)c1cccc(OC(F)(F)F)c1 [Example 157, methyl{(1S,2S)-2-(4-chlorophenyl)-1-[(4-{2-[(2R)-1,9-dioxa-4-azaspiro[5.5]undec-2-yl]ethyl}-5-fluoropyridin-3-yl)carbamoyl]-2-[3-(trifluoromethoxy)phenyl]ethyl}carbamate]	0.21	–
N[C@H](C(=O)Nc1cncc(F)c1CC[C@@H]1CNCC2(CCOCC2)O1)[C@@H](c1ccc(Cl)cc1)C1CCOCC1 [Example 158, (βR)-4-chloro-N-(4-{2-[(2R)-1,9-dioxa-4-azaspiro[5.5]undec-2-yl]ethyl}-5-fluoropyridin-3-yl)-β-(tetrahydro-2H-pyran-4-yl)-L-phenylalaninamide]	0.39	–

Source: US9994587B2, “HIV protease inhibitors” (priority 2014, dated 2018)
